Series [1] has as its system NCI-H1975 (EGFR-L858R-T790M) cells. Briefly: Inhibitory activity on proliferation of NCI-H1975 (EGFR-L858R-T790M) cells (CTG, 72 h). In kind it is cell-based. The note with it: Homo sapiens. The gist of the method: (§1)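 Cells plated at 1000/well (NCI-H1975, RPMI1640+10% FBS) or 3000/well (A431, DMEM+10% FBS), dosed next day with compounds (0.1% DMSO final) for 72 h at 37 °C, 5% CO2. Viability by CTG luminescence, normalised to vehicle control; IC50 from nonlinear-regression dose-survival curves.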

Series [2] has as its system A431 (EGFR-WT) cells. Briefly: Inhibitory activity on proliferation of A431 (EGFR-WT) cells (CTG, 72 h). In kind it is cell-based. The note with it: Homo sapiens, A-431. The gist of the method:
as §1

Series [3] is described as follows: Pharmacokinetic test in mice. In kind it is in vivo. The note with it: male, ICR, mouse, po, administration i.g. (10 mg/kg), plasma. The procedure:
Test objective: In this experiment, a single dose of test compounds was administered to ICR mice intravenously and intragastrically, the concentrations of the test compounds in plasma of mice were measured, and the pharmacokinetic characteristics and bioavailability of the test compounds in mice were evaluated.
Experimental animals: male ICR mice, 20-25 g, purchased from BEIJING HFK BIOSCIENCE CO., LTD. with the laboratory animal production license number of SCXK (JING) 2019-0008; or purchased from CHENGDU DDOSSY EXPERIMENTAL ANIMALS CO., LTD. (SCXK (CHUAN) 2020-030); or purchased from HUNAN SJA LABORATORY ANIMAL CO., LTD. (SCXK (XIANG) 2019-0004).
Experimental method: on the day of the experiment, ICR mice were randomly grouped according to their body weights. The mice were fasted with water available for 12 to 14 hours one day before the administration, and were fed 4 hours after the administration.
Sampling: before and after the administration, blood was taken from the orbits of the mice under isoflurane anesthesia, and placed in an EDTAK2 centrifuge tube. Centrifugation was carried out at 5000 rpm at 4° C. for 10 min, and the plasma was collected.
Time points for plasma collection in G1&G2 groups: 0, 5 min, 15 min, 30 min, 1h, 2h, 4h, 6h, 8h, and 24 h; • time points for plasma collection in G3 group: 0, 5 min, 15 min, 30 min, 1 h, 2 h, 4 h, 6h, 8h, and 24 h; • before analysis and detection, all samples were stored at −80° C. The samples were analyzed quantitatively by LC-MS/MS.

Setting [4] is: read-out: IC50 (value in brackets).

The record followed here is patent US20240269298A1, “PHOSPHONYL DERIVATIVE, AND COMPOSITION AND PHARMACEUTICAL APPLICATION THEREOF” (XIZANG HAISCO PHARMACEUTICAL CO., LTD., priority 2021, published 2024).

Like-named read-outs stand apart in the source and are kept apart here.

As a reminder, the IC50 is the midpoint of a concentration-inhibition curve. The term AUC(0-t) denotes exposure summed from dosing to a finite time, without extrapolation to infinity. High values mean high exposure, low ones low exposure. `COc1cc(N2CCC(CN3CCC4(CCCN(c5ccc6c(c5)C(=O)N(C5CCC(=O)NC5=O)C6=O)C4)CC3)CC2)c(-c2cnn(C)c2)cc1Nc1ncc(Br)c(Nc2ccc(-c3ccccc3)cc2P(C)(C)=O)n1` (stereo not drawn) [Compound 38, 5-(9-((1-(4-((5-bromo-4-((3-(dimethylphosphoryl)-[1,1′-biphenyl]-4-yl)amino)pyrimidin-2-yl)amino)-5-methoxy-2-(1-methyl-1H-pyrazol-4-yl)phenyl)piperidin-4-yl)methyl)-2,9-diazaspiro[5.5]undecan-2-yl)-2-(2,6-dioxopiperidin-3-yl)isoindoline-1,3-dione]: the IC50 in series [1] (read-out: IC50 (class symbol)) is below 100 nM; in series [1] (setting [4]), 60 nM; in series [2], at least 10000 nM. Moreover, the area under the curve AUC(0-t) in series [3] stood at 3730 ng·h/mL.
On to `COc1cc(N2CCC3(CCN(CC4CCN(c5cc6c(cc5F)C(=O)N(C5CCC(=O)NC5=O)C6=O)CC4)CC3)CC2)c(-c2cnn(C)c2)cc1Nc1ncc(Br)c(Nc2ccc(-c3ccccc3)cc2P(C)(C)=O)n1` (stereo not drawn) [Compound 39, 5-(4-((9-(4-((5-bromo-4-((3-(dimethylphosphoryl)-[1,1′-biphenyl]-4-yl)amino)pyrimidin-2-yl)amino)-5-methoxy-2-(1-methyl-1H-pyrazol-4-yl)phenyl)-3,9-diazaspiro[5.5]undecan-3-yl)methyl)piperidin-1-yl)-2-(2,6-dioxopiperidin-3-yl)-6-fluoroisoindoline-1,3-dione], for which the IC50 in series [1] (read-out: IC50 (class symbol)) was below 100 nM; in series [1] (setting [4]), 51 nM. For the same molecule, the area under the curve AUC(0-t) in series [3] was 6000 ng·h/mL.
Consider `COc1cc(N2CCC(CN3CCC4(CC3)CCN(c3ccc5c(c3)C(=O)N(C3CCC(=O)NC3=O)C5=O)CC4)CC2)c(-c2cnn(C)c2)cc1Nc1ncc(Cl)c(Nc2ccc(-c3ccccc3)cc2P(C)(C)=O)n1` (stereo not drawn) [Compound 48, 5-(9-((1-(4-((5-chloro-4-((3-(dimethylphosphoryl)-[1,1′-biphenyl]-4-yl)amino)pyrimidin-2-yl)amino)-5-methoxy-2-(1-methyl-1H-pyrazol-4-yl)phenyl)piperidin-4-yl)methyl)-3,9-diazaspiro[5.5]undecan-3-yl)-2-(2,6-dioxopiperidin-3-yl)isoindoline-1,3-dione], for which the figures for the IC50 in series [1] (read-out: IC50 (class symbol)), in series [1] (setting [4]) and in series [2] were below 100 nM, 32 nM and at least 10000 nM, respectively. In addition, the AUC(0-t) in series [3] amounted to 7790 ng·h/mL.
Regarding `COc1cc(N2CCC(N3CCN(CC4CCN(c5ccc6c(c5)C(=O)N(C5CCC(=O)NC5=O)C6=O)CC4)CC3)CC2)c(-c2cnn(C)c2)cc1Nc1ncc(Br)c(Nc2ccc(C3CC3)cc2P(C)(C)=O)n1` (stereo not drawn) [Compound 55, 5-(4-((4-(1-(4-((5-bromo-4-((4-cyclopropyl-2-(dimethylphosphoryl)phenyl)amino)pyrimidin-2-yl)amino)-5-methoxy-2-(1-methyl-1H-pyrazol-4-yl)phenyl)piperidin-4-yl)piperazin-1-yl)methyl)piperidin-1-yl)-2-(2,6-dioxopiperidin-3-yl)isoindoline-1,3-dione], the IC50 is below 100 nM in series [1] (read-out: IC50 (class symbol)), 30 nM in series [1] (setting [4]) and at least 10000 nM in series [2]. This molecule also gave an AUC(0-t) in series [3] of 19900 ng·h/mL.
With `COc1cc(N2CCC(N3CCN(CC4CCN(c5ccc(C(=O)NC6CCC(=O)NC6=O)nc5)CC4)CC3)CC2)c(-c2cnn(C)c2)cc1Nc1ncc(Br)c(Nc2ccc(-c3ccccc3)cc2P(C)(C)=O)n1` (stereo not drawn) [Compound 56, 5-(4-((4-(1-(4-((5-bromo-4-((3-(dimethylphosphoryl)-[1,1′-biphenyl]-4-yl)amino)pyrimidin-2-yl)amino)-5-methoxy-2-(1-methyl-1H-pyrazol-4-yl)phenyl)piperidin-4-yl)piperazin-1-yl)methyl)piperidin-1-yl)-N-(2,6-dioxopiperidin-3-yl)picolinamide], the IC50 was below 100 nM in series [1] (read-out: IC50 (class symbol)) and 61 nM in series [1] (setting [4]). The molecule also gave an AUC(0-t) in series [3] of 28600 ng·h/mL.
Take `COc1cc(N2CCC(N3CCN(CC4CCN(c5ccc6c(c5)C(=O)N(C5CCC(=O)NC5=O)C6=O)CC4)CC3)CC2)c(-c2cnn(C)c2)cc1Nc1ncc(Cl)c(Nc2ccc(-c3ccccc3)cc2P(C)(C)=O)n1` (stereo not drawn) [Compound 58, 5-(4-((4-(1-(4-((5-chloro-4-((3-(dimethylphosphoryl)-[1,1′-biphenyl]-4-yl)amino)pyrimidin-2-yl)amino)-5-methoxy-2-(1-methyl-1H-pyrazol-4-yl)phenyl)piperidin-4-yl)piperazin-1-yl)methyl)piperidin-1-yl)-2-(2,6-dioxopiperidin-3-yl)isoindoline-1,3-dione]: the results for the IC50 in series [1] (read-out: IC50 (class symbol)), in series [1] (setting [4]) and in series [2] were below 100 nM, 72 nM and at least 10000 nM, respectively. The molecule also came in with an AUC(0-t) in series [3] of 16300 ng·h/mL.
With `COc1cc(N2CCC(N3CCN(C4CC5(CCN(c6ccc7c(c6)C(=O)N(C6CCC(=O)NC6=O)C7=O)CC5)C4)CC3)CC2)c(-c2cnn(C)c2)cc1Nc1ncc(Br)c(Nc2ccc(-c3ccccc3)cc2P(C)(C)=O)n1` (stereo not drawn) [Compound 63, 5-(2-(4-(1-(4-((5-bromo-4-((3-(dimethylphosphoryl)-[1,1′-biphenyl]-4-yl)amino)pyrimidin-2-yl)amino)-5-methoxy-2-(1-methyl-1H-pyrazol-4-yl)phenyl)piperidin-4-yl)piperazin-1-yl)-7-azaspiro[3.5]nonan-7-yl)-2-(2,6-dioxopiperidin-3-yl)isoindoline-1,3-dione], the values for the concentration for half-maximal inhibition (IC50) in series [1] (read-out: IC50 (class symbol)), in series [1] (setting [4]) and in series [2] were below 100 nM, 90 nM and at least 10000 nM, respectively. The molecule also showed an area under the curve AUC(0-t) in series [3] of 14700 ng·h/mL.
On to `COc1cc(N2CCC(N3CCN(CC4CCN(c5ccc6c(c5)C(=O)N(C5CCC(=O)NC5=O)C6=O)CC4)CC3)CC2)c(-c2cnn(C)c2)cc1Nc1ncc(Br)c(Nc2ccc3ccccc3c2P(C)(C)=O)n1` (stereo not drawn) [Compound 71, 5-(4-((4-(1-(4-((5-bromo-4-((1-(dimethylphosphoryl)naphthalen-2-yl)amino)pyrimidin-2-yl)amino)-5-methoxy-2-(1-methyl-1H-pyrazol-4-yl)phenyl)piperidin-4-yl)piperazin-1-yl)methyl)piperidin-1-yl)-2-(2,6-dioxopiperidin-3-yl)isoindoline-1,3-dione], for which the IC50 was below 100 nM in series [1] (read-out: IC50 (class symbol)), 29 nM in series [1] (setting [4]) and at least 10000 nM in series [2]. The area under the curve AUC(0-t) in series [3] worked out at 24700 ng·h/mL.
With `COc1cc(N2CCC(N3CCN(CC4CCN(c5ccc6c(c5)C(=O)N(C5CCC(=O)NC5=O)C6=O)CC4)CC3)CC2)c(-c2cnn(C)c2)cc1Nc1ncc(Cl)c(Nc2ccc3ccccc3c2P(C)(C)=O)n1` (stereo not drawn) [Compound 72, 5-(4-((4-(1-(4-((5-chloro-4-((1-(dimethylphosphoryl)naphthalen-2-yl)amino)pyrimidin-2-yl)amino)-5-methoxy-2-(1-methyl-1H-pyrazol-4-yl)phenyl)piperidin-4-yl)piperazin-1-yl)methyl)piperidin-1-yl)-2-(2,6-dioxopiperidin-3-yl)isoindoline-1,3-dione], the values for the concentration for half-maximal inhibition (IC50) in series [1] (read-out: IC50 (class symbol)), in series [1] (setting [4]) and in series [2] were below 100 nM, 31 nM and at least 10000 nM, respectively. In series [3], the exposure AUC(0-t) turned out to be 16400 ng·h/mL.
One may read the AUC as concentration integrated over time. By half-life is commonly meant the time needed for the level to fall by half in the phase considered. A high value points to slow loss. Take `COc1cc(N2CCC(CN3CCN(c4ccc5c(c4)C(=O)N(C4CCC(=O)NC4=O)C5=O)CC3)CC2)c(-c2cnn(C)c2)cc1Nc1ncc(Br)c(Nc2ccc(F)cc2P(C)(C)=O)n1` (stereo not drawn) [Compound 141, 5-(4-((1-(4-((5-bromo-4-((2-(dimethylphosphoryl)-4-fluorophenyl)amino)pyrimidin-2-yl)amino)-5-methoxy-2-(1-methyl-1H-pyrazol-4-yl)phenyl)piperidin-4-yl)methyl)piperazin-1-yl)-2-(2,6-dioxopiperidin-3-yl)isoindoline-1,3-dione]: in series [1] (read-out: IC50 (class symbol)), the IC50 is below 100 nM. The half-maximal inhibitory concentration (IC50) in series [1] (setting [4]) turned out to be 27 nM. Moreover, in series [3], the AUC was determined as 86600 ng·h/mL and the half-life was 5.91 h.
`COc1cc(N2CCC(CN3CCN(c4ccc5c(c4)C(=O)N(C4CCC(=O)NC4=O)C5=O)CC3)CC2)c(-c2cnn(C)c2)cc1Nc1ncc(Cl)c(Nc2ccc(F)cc2P(C)(C)=O)n1` (stereo not drawn) [Compound 142, 5-(4-((1-(4-((5-chloro-4-((2-(dimethylphosphoryl)-4-fluorophenyl)amino)pyrimidin-2-yl)amino)-5-methoxy-2-(1-methyl-1H-pyrazol-4-yl)phenyl)piperidin-4-yl)methyl)piperazin-1-yl)-2-(2,6-dioxopiperidin-3-yl)isoindoline-1,3-dione]: in series [1] (read-out: IC50 (class symbol)), the IC50 is below 100 nM. For the same molecule, the IC50 in series [1] (setting [4]) worked out at 33 nM. In series [3], this molecule gave an area under the curve (AUC) of 104000 ng·h/mL and a half-life of 5.12 h.
